Values of other authors as cited in paper PMC6050274, “Buparlisib is a brain penetrable pan-PI3K inhibitor” (Scientific Reports, 2018).

Details: cited from earlier work

brain-plasma ratio, ≤ 1:
COC1(c2sc3c(N4CCOCC4)nc(-c4cnc(N)nc4)nc3c2C)COC1 [GNE-317]
Cn1c(=O)n(-c2ccc(C(C)(C)C#N)cc2)c2c3cc(-c4cnc5ccccc5c4)ccc3ncc21 [NVP-BEZ235]
FC(F)c1nc2ccccc2n1-c1nc(N2CCOCC2)nc(N2CCOCC2)n1 [ZSTK474]
